Measured values: patent publication US10011614B2, “Bis-β-carboline compound and preparation method, pharmaceutical composition and use thereof” (XINJIANG HUASHIDAN PHARMACEUTICAL RESEARCH CO., LTD., priority 2012, dated 2018)

Columns and labels:
[1] = test system: BGC (human gastric cancer cells); assay: Antitumor screening in vitro, MTT assay, BGC; format: cell-based; settings: 48 hours
Method: (§1) Cell lines: BGC (human gastric cancer cells), A375 (human malignant melanoma cells), 769-P (human renal carcinoma cells), KB (human oral epidermoid carcinoma cells), SK-OV-3 (human ovarian cancer cells), etc, were selected, and the test method was the MTT assay. Cisplatin was as a positive control.
(§2) Specific methods are as follows: cells growing well in the logarithmic phase were seeded in 96-well plates at a concentration of 1×10^4 cells/ml, and then were placed in 37° C., containing 5% CO2 incubator for 24 hours. After discarding the old solution, changed fresh medium, and added sterilization treatment compound, and then cultured for 48 hours. After discarding the culture medium, 20 ul RPMI1640 medium containing 5 mg/ml MTT were added to each well in 96-well plates and cells were cultured for 4 hours. After the supernatant was carefully removed, 100 μl DMSO was added to each well, and the plates were Oscillated about 10 min to dissolve the precipitate, followed by detecting OD value in wavelength 490 nm by the microplate reader. Cell survival rate for each sample concentrations was determined by the following formula: The mean survival rate %=the average OD value of sample group/the average OD value of control group×100%
(§3) Morphological studies by mapping with the logarithm of the drug concentration and the mean survival rate % of each sample to obtain IC50 values for each sample.

[2] = test system: A375 (human malignant melanoma cells); assay: Antitumor screening in vitro, MTT assay, A375; format: cell-based
Method: as §1, §2, §3

[3] = test system: 769-P (human renal carcinoma cells); assay: Antitumor screening in vitro, MTT assay, 769-P; format: cell-based; settings: 48 hours, 769-P cells
Method: as §1, §2, §3

[4] = test system: KB (human oral epidermoid carcinoma cells); assay: Antitumor screening in vitro, MTT assay, KB; format: cell-based; settings: 48 hours
Method: as §1, §2, §3

[5] = test system: SK-OV-3 (human ovarian cancer cells); assay: Antitumor screening in vitro, MTT assay, SK-OV-3; format: cell-based; settings: 48 hours, SK-OV-3 cells
Method: as §1, §2, §3

Kunming mice = assay: Acute toxicity test in mice (LD50); settings: Kunming mice, single intraperitoneal administration, observed two weeks, Bliss method
Method: (§4) Solvent: 0.9% saline and 0.5% CMC-Na solution. According to pre-test results, design 5 dose gradient for each sample, dose spacing was 0.8 times. […] Experimental volume is 0.5 ml/20 g mouse. A single intraperitoneal administration is used. Kunming mice were taken and grouped randomly by gender, and intraperitoneal administration according to dose designation was set to observe the immediate reaction after administration in mice. Dead animals were dissected to observe, surviving animals continued to observe two weeks, and the animal deaths in two weeks were recorded. After two weeks, surviving animals were dissected, observed substantial organ lesions, and the organs having substantive lesions were further for histological examination. According to the number of deaths in each group of animals, calculating the median lethal dose (LD50 value) by Bliss method, and further, calculating the maximum tolerated dose (MTD) for less toxic compounds.

in vivo = settings: both, Kunming, mouse, in vivo, ip
Method: as §4

| IC50 ([1]; Homo sapiens) [µM] | IC50 ([2]; Homo sapiens, A-375, 48 hours) [µM] | IC50 ([3]; Homo sapiens) [µM] | IC50 ([4]; Homo sapiens) [µM] | IC50 ([5]; Homo sapiens) [µM] | SMILES | IC50 [1] [µM] | IC50 ([2]; 48 hours) [µM] | IC50 [3] [µM] | IC50 [4] [µM] | IC50 [5] [µM] | acute toxicity LD50 (Kunming mice) [mg/kg] | LD50 at 2 weeks (in vivo) [mg/kg] |
| --- | --- | --- | --- | --- | --- | --- | --- | --- | --- | --- | --- | --- |
| – | – | – | – | – | COc1cc(-c2nccc3c4ccccc4n(CCCCCCn4c5ccccc5c5ccnc(-c6cc(OC)c(OC)c(OC)c6)c54)c23)cc(OC)c1OC [Compound 19, 1,6-bis[1-(3,4,5-trimethoxy)phenyl-β-carboline-9-yl) hexane] | > 300 | 5.9 | 16.8 | > 300 | > 300 | 200 | – |
| – | – | – | – | – | CCOC(=O)c1cc2c3ccccc3n(CCCCCCn3c4ccccc4c4cc(C(=O)OCC)nc(-c5cc(OC)c(OC)c(OC)c5)c43)c2c(-c2cc(OC)c(OC)c(OC)c2)n1 [Compound 27, 1,6-bis[1-(3,4.5-trimethoxy)phenyl-β-carboline-β-ethyoxylcarbonyl-9-yl]hexane] | – | – | – | – | – | 300 | – |
| > 300 | > 300 | 3.1 | > 300 | > 300 | Cc1nccc2c3ccccc3n(CCCCCCCCn3c4ccccc4c4ccnc(C)c43)c12 [Compound 11, 1,8-bis(1-methyl-β-carboline-9-yl) octane] | – | – | – | – | – | – | 200 |
